Laboratory results taken from patent US6503449B1, “Process for the control of microbial contamination in water-based solids suspensions” (Ciba Specialty Chemicals Corporation, priority 1998, dated 2003).

What was measured:
Assay type in all cases: cell-based
Gram negative organisms = experiment: Single/multiple pass through 2406 Nearfield Accoustical Processor with biocide, Nutrient Agar plates; settings: 250 ppm; after one pass through the sonicator, 16 kHz and 20 kHz, 750 kg/hr; initial count 4.8×10^6 cfu per millilitre
Source text: (§1) A mixture of Pigment Red 23,215.5 parts, Emulan OG (RTM) (35% solution in water), 153.7 parts, tributyl phosphate, 2 parts, and water, 128.8 parts are dispersed by re-circulation through a Bachofen KDL200 bead-mill until colouristic properties are within specification of UNISPERSE (RTM) Red RBS-PI as detailed in Example 1 and adjusted to pH 8.0-8.5 with 20% sodium hydroxide solution. This material is identified as having a bacterial count of 4.8×10^6 colony-forming units (cfu) per millilitre comprised of a mixture of Gram positive and Gram negative bacteria. It is treated with 250 parts per million(ppm) of pentane 1,5-dialdehyde and pumped through a 2406 Nearfield Accoustical Processor sonicating at 16 kHz and 20 kHz respectively with a plate separation of 6 mm (approximately) at a flow rate of 750 kg/hr. Assessment bacterial activity is then done by spreading a sample of the pigment dispersion on Nutrient Agar(NA) plates and incubating at 30° C. for 48 hours. […] The temperature rise is 1° C. per pass, from a starting value of 20° C.

Gram positive organisms = experiment: as above; settings: 250 ppm; after four passes through the sonicator, 16 kHz and 20 kHz, 750 kg/hr; initial count 4.8×10^6 cfu per millilitre
Source text: as §1

[1] = tested on: mixture of Gram positive and Gram negative bacteria; experiment: Sonication of Pigment Red 23 dispersion of Example 2 with biocide, bacterial contamination check; set-up: key: −: no bacterial colonies detected; +: light contamination (10^0 and 10^3 cfu/ml); ++: moderate contamination(10^3-10^5 cfu/ml); +++: heavy contamination(>10^5 cfu/ml)
Source text: A mixture of Pigment Red 23, available from Ciba Specialty Chemicals(UK) Ltd., 215.5 parts, Emulan OG (RTM) (35% solution in water), available from BASF, 153.7 parts, tributyl phosphate, available from Albright & Wilson, 2 parts, and water, 128.8 parts, are dispersed by re-circulation through a Bachofen KDL200 bead-mill until colouristic properties are within specification of UNISPERSE (RTM) Red RBS-PI, available from Ciba Specialty Chemicals(UK) Ltd., and adjusted to pH 8.0-8.5 with 20% sodium hydroxide solution. This material is identified as containing the Gram negative bacterium, Pseudomonas putida. 50 millilitre aliquots of this dispersion containing levels of glutaraldehyde (pentane-1,5-dialdehyde), available as the trade product Protectol GDA form BASF or Ucarcide from Union Carbide, between 0 parts per million (ppm) and 2000 ppm are sonicated using a Branson MSE sonicator with a 19 mm horn probe resonating at 20 kHz with an amplitude of 6 microns. Sonication is undertaken in a 100 millilitre glass beaker, diameter 38 mm, with magnetic flea agitator and cooled in a water/ice bath to maintain temperature at 28-32° C. Bacterial growth in each sample is assessed at 5 minute intervals by streaking each dispersion on to Nutrient Agar(NA) plates and incubating the plates for a minimum of 48 hours at 30° C. The plates are then examined for bacterial colonies and expressed according to the following notation:
as §1
The solids dispersion as defined in Example 2, containing the mixture of Gram positive and Gram negative bacteria, is treated separately with 200 ppm and 500 ppm of pentane-1,5-dialdeyde (Ucarcide 250 (RTM)), and with 200 ppm and 500 ppm of CIT/MIT mixture (Acticide LG (RTM)) and each sonicated for a period of 30 minutes according to the process defined in Example 1. Each sample is then checked for bacterial contamination over following 28 days.

O=CCCCC=O [glutaraldehyde, pentane-1,5-dialdehyde]
bacterial activity on Nutrient Agar plates, Gram negative organisms (Gram negative organisms): no Gram negative organisms are evident | bacterial activity on Nutrient Agar plates, Gram positive organisms (Gram positive organisms): no Gram positive organisms are found | bacterial contamination ([1]; Ucarcide 250 200 ppm, 1 days after sonication): − | bacterial contamination ([1]; Ucarcide 250 200 ppm, 2 days after sonication): − | bacterial contamination ([1]; Ucarcide 250 200 ppm, 7 days after sonication): − | bacterial contamination ([1]; Ucarcide 250 200 ppm, 14 days after sonication): − | bacterial contamination ([1]; Ucarcide 250 200 ppm, 28 days after sonication): − | bacterial contamination ([1]; Ucarcide 250 200 ppm, sonicated 0 mins.): +++ (heavy contamination(>10^5 cfu/ml)) | bacterial contamination ([1]; Ucarcide 250 200 ppm, sonicated 5 mins.): ++ (moderate contamination(10^3-10^5 cfu/ml)) | bacterial contamination ([1]; Ucarcide 250 200 ppm, sonicated 10 mins.): − | bacterial contamination ([1]; Ucarcide 250 200 ppm, sonicated 15 mins.): − | bacterial contamination ([1]; Ucarcide 250 200 ppm, sonicated 20 mins.): − | bacterial contamination ([1]; Ucarcide 250 200 ppm, sonicated 25 mins.): − | bacterial contamination ([1]; Ucarcide 250 200 ppm, sonicated 30 mins.): − | bacterial contamination ([1]; Ucarcide 250 500 ppm, 1 days after sonication): − | bacterial contamination ([1]; Ucarcide 250 500 ppm, 2 days after sonication): − | bacterial contamination ([1]; Ucarcide 250 500 ppm, 7 days after sonication): − | bacterial contamination ([1]; Ucarcide 250 500 ppm, 14 days after sonication): − | bacterial contamination ([1]; Ucarcide 250 500 ppm, 28 days after sonication): − | bacterial contamination ([1]; Ucarcide 250 500 ppm, sonicated 0 mins.): +++ (heavy contamination(>10^5 cfu/ml)) | bacterial contamination ([1]; Ucarcide 250 500 ppm, sonicated 5 mins.): − | bacterial contamination ([1]; Ucarcide 250 500 ppm, sonicated 10 mins.): − | bacterial contamination ([1]; Ucarcide 250 500 ppm, sonicated 15 mins.): − | bacterial contamination ([1]; Ucarcide 250 500 ppm, sonicated 20 mins.): − | bacterial contamination ([1]; Ucarcide 250 500 ppm, sonicated 25 mins.): − | bacterial contamination ([1]; Ucarcide 250 500 ppm, sonicated 30 mins.): −
